{"source": "patent US20140050669A1", "about": "“USE OF RADIOGRAPHIC CONTRAST AGENTS FOR DETECTING DENTAL CARIES” (Creighton University, priority 2011, published 2014)", "key": {"[1]": {"assay": "comparison of contrast agents applied in turn to the same tooth cavity, radiographic analysis", "procedure": "A 9M solution of sodium iodide (an ionic contrast agent) and a 76% solution of iopamidol (a non-ionic contrast agent) were administered. Each compound was applied in turn under identical conditions to the same tooth cavity and the tooth was radiographically analyzed as discussed above. After application and testing of each compound, the contrast was washed out from the tooth, and the tooth was tested radiographically to ensure there was no contrast remaining.\nA barium sulfate solution comprising 1 gram of barium sulfate in 0.5 ml distilled water was administered. The compound was applied, and the tooth was analyzed and compared to other contrast agents and to the control treated tooth as discussed in Example 4. After application and testing of each compound, the contrast was washed out from the tooth and the tooth was tested radiographically to ensure there was no contrast remaining."}, "[2]": {"conditions": "barium sulfate 96% w/w, radiograph 15 seconds after application", "excerpt": "The radiograph was taken 15 seconds after barium sulfate (96% w/w) was applied."}, "[3]": {"assay": "x-ray contrast imaging of identified dental caries before and after topical intra-oral composition", "conditions": "9 M sodium iodide in distilled water", "procedure": "A radiographic contrast imaging analysis using x-ray imaging was performed, comparing the imaging of identified dental caries before and after administration of a topical intra-oral composition comprising sodium iodide and distilled water according to the methods of the current invention. Specifically, an x-ray image of a tooth with identified dental caries was performed, without administering the topical intra-oral composition. This image was used as a control for determining the ability of typical x-ray images to detect dental caries in a patient. Subsequently, the same tooth was administered a composition comprising sodium iodide and distilled water, with the composition having a sodium iodide concentration of 9 molar. After administration of the composition to the tooth, x-ray images were obtained 20 seconds after administration and 16 minutes after administration. Further, an x-ray image of the tooth was taken 14 days after administration of the composition to determine if the composition continued to reside in the dental carious lesion. The images obtained are found in FIG. 1."}, "[4]": {"assay": "x-ray imaging of cavitated surface versus sound healthy surface", "conditions": "9 M sodium iodide solution, x-ray 2 minutes after administration", "procedure": "An experiment was performed to test the ability of the topical intra-oral compositions and methods to differentiate between cavitated surfaces (dental caries) and healthy, sound surfaces. Specifically, an x-ray image of a tooth with an identified cavitated surface on one side of the tooth and a sound surface on the other side was performed, without administering the topical intra-oral composition. This image was used as a control for determining the ability of the topical intra-oral compositions to selectively absorb into cavitated surfaces, rather than sound surfaces. Subsequently, the same tooth was administered a composition comprising sodium iodide and distilled water, with the composition having a sodium iodide concentration of 9 molar. After administration of the composition to the tooth, an x-ray image was obtained 2 minutes after administration. The results are illustrated in FIG. 2."}, "[5]": {"assay": "x-ray imaging of cavitated lesion versus non-cavitated lesion", "conditions": "9 M sodium iodide solution, x-ray 3 minutes after administration", "procedure": "An experiment was performed to test the ability of the topical intra-oral compositions and methods to differentiate between cavitated surfaces (a cavity) requiring treatment and non-cavitated lesions not requiring treatment. Specifically, an x-ray image of a tooth with an identified cavitated surface on the right side of the tooth and a non-cavitated lesion on the other side was performed, without administering the topical intra-oral composition. This image was used as a control for determining the ability of the topical intra-oral compositions to selectively absorb into cavitated lesions, rather than non-cavitated lesions. Subsequently, the same tooth was administered a composition comprising sodium iodide and distilled water, with the composition having a sodium iodide concentration of 9 molar. After administration of the composition to the tooth, an x-ray image was obtained 3 minutes after administration. The results are illustrated in FIG. 3."}}}
{"compound": "O=S(=O)([O-])[O-].[Ba+2]", "note": "[barium sulfate]", "values": [{"measurement": "radiographic contrast enhancement of tooth cavity", "setting": "[1]; 1 gram of barium sulfate in 0.5 ml distilled water", "value": "produced radiographic contrast enhancement revealing tooth cavitation"}, {"measurement": "radiographic image of shallow cavity", "setting": "[2]", "value": "image showing a shallow cavity"}]}
{"compound": "C[C@H](O)C(=O)Nc1c(I)c(C(=O)NC(CO)CO)c(I)c(C(=O)NC(CO)CO)c1I", "note": "[iopamidol]", "values": [{"measurement": "radiographic contrast enhancement of tooth cavity", "setting": "[1]; 76% solution of iopamidol", "value": "produced radiographic contrast enhancement revealing tooth cavitation"}]}
{"compound": "[I-].[Na+]", "note": "[sodium iodide]", "values": [{"measurement": "radiographic image of dental caries versus control image", "setting": "[3]; x-ray 20 seconds after administration", "value": "enhanced radiographic image of dental caries"}, {"measurement": "radiographic image of dental caries versus control image", "setting": "[3]; x-ray 16 minutes after administration", "value": "enhanced radiographic image of dental caries"}, {"measurement": "x-ray appearance of composition in the carious lesion", "setting": "[3]; x-ray 14 days after administration", "value": "altered x-ray appearance"}, {"measurement": "radiographic image of dental caries (cavitated surface)", "setting": "[4]; cavitated surface", "value": "enhanced radiographic image of dental caries"}, {"measurement": "effect on imaging of sound tooth surfaces", "setting": "[4]; sound surface", "value": "does not affect the imaging of sound tooth surfaces"}, {"measurement": "radiographic image of cavitated lesion (cavity)", "setting": "[5]; cavitated lesion", "value": "enhanced radiographic image of a cavitated lesion"}, {"measurement": "effect on imaging of non-cavitated lesions", "setting": "[5]; non-cavitated lesion", "value": "does not affect the imaging of non-cavitated lesions"}, {"measurement": "radiographic contrast enhancement of tooth cavity", "setting": "[1]; 9M solution of sodium iodide", "value": "produced radiographic contrast enhancement revealing tooth cavitation"}]}
